GI50 and TGI data for one molecule are collected here from PubChem BioAssay (NCI).

Among the test systems are UO-31 renal; CAKI-1 renal; LOX IMVI melanoma; K-562 leukemia; PC-3 prostate; HCC-2998 colon; EKVX NSCLC; RPMI-8226 leukemia; NCI/ADR-RES ovarian; HOP-92 NSCLC; HL-60(TB) leukemia.
What all share (experiment): growth of human tumour cells (NCI), 48 h

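Growth conditions: 96-well plates. Treatment: test compound, 48 hours, 5 concentrations. Analysis: linear interpolation between bracketing concentrations; unreached endpoints set to highest concentration. GI50 is the concentration that inhibits growth by half. At the TGI there is no net growth.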

With `O=C1c2ccccc2-c2c1c1ccccc1c(=O)n2CCNCCNCCNCCn1c2c(c3ccccc3c1=O)C(=O)c1ccccc1-2`, the GI50 in the test on UO-31 renal was 1120 nM; in the test on CAKI-1 renal, 1440 nM; with LOX IMVI melanoma it was 70.9 nM; with K-562 leukemia, 253 nM; in the test on PC-3 prostate it was 373 nM; in the test on HCC-2998 colon it was 591 nM. The GI50 is 1280 nM in the test with EKVX NSCLC; 49.9 nM in the test on RPMI-8226 leukemia; 3900 nM in the test with NCI/ADR-RES ovarian; 2900 nM with HOP-92 NSCLC; 1800 nM with HL-60(TB) leukemia. Moreover, the TGI in the test on UO-31 renal worked out at 2640 nM; with CAKI-1 renal, 4190 nM; with LOX IMVI melanoma, 572 nM; with PC-3 prostate, 1330 nM; in the test on HCC-2998 colon, 6110 nM; with EKVX NSCLC, 2810 nM. For the same molecule, the values for the TGI in the test on NCI/ADR-RES ovarian and in the test on HOP-92 NSCLC were above 54900 nM and above 100000 nM, respectively.
